24 compounds from patent US20250042920A1 (OCEAN UNIVERSITY OF CHINA, priority 2021, published 2025) can be followed below.

Assay [1] has as its target MNK2 (Homo sapiens, UniProt Q9HBH9). The assay can be described thus: MNK2 kinase inhibition assay (LANCE Ultra kinase activity assay, PerkinElmer). It counts as biochemical. Conditions: 100 μM ATP; for inhibition at 1 µM: inhibition rate at 1000 nM compound, 60 min, 25° C., read-out: Inhibitory activity(1 μM) MNK2; for pIC50: five concentrations 10000-1 nM. As for the experimental part: (§1) MNK1 and MNK2 kinase inhibition assays were performed using LANCE Ultra kinase activity assay developed by PerkinElmer. […] The test steps are as follows: At 25° C., 1.00 ng MNK1 or 0.05 ng MNK2 was prepared with different concentrations (10000, 1000, 100, 10, 1 nM) of the tested compound to form a total volume of 10 μL reaction mixture (MNK1: 12.5 nM CREB, 450 μM ATP, 2 mM DTT, 1× buffer; MNK2: 12.5 nM CREB, 100 μM ATP, 2 mM DTT, 1×buffer), and incubation for 60 min. The reaction was terminated by adding 5 μL EDTA/Detection buffer and 5 μL Eu-CREB/Detection buffer. The ratio of HTRF signals at 615 nm and 665 nm was detected after 60 min of incubation. The inhibition rate was calculated by measuring the compounds at 1000 nM.
(§2) Then five different concentrations (10000, 1000, 100, 10, 1 nM) of the tested compounds were measured, and the IC50 value was calculated according to the inhibition rate fitting curve.
A general note: TR-FRET usually uses a lanthanide donor and a delayed reading to cut background.

Assay [2] deals with MNK1 (Homo sapiens, UniProt Q9BUB5). The assay can be described thus: MNK1 kinase inhibition assay (LANCE Ultra kinase activity assay, PerkinElmer). The class given is biochemical. Conditions: 450 μM ATP; for inhibition at 1 µM: inhibition rate at 1000 nM compound, 60 min, 25° C., read-out: Inhibitory activity(1 μM) MNK1; for pIC50: five concentrations 10000-1 nM. As for the experimental part: as §1, §2

pIC50: −log10 of the molar value. Where only a bound is given, the exact number is not on record here.

Chain of MNK2 (Q9HBH9 whole entry): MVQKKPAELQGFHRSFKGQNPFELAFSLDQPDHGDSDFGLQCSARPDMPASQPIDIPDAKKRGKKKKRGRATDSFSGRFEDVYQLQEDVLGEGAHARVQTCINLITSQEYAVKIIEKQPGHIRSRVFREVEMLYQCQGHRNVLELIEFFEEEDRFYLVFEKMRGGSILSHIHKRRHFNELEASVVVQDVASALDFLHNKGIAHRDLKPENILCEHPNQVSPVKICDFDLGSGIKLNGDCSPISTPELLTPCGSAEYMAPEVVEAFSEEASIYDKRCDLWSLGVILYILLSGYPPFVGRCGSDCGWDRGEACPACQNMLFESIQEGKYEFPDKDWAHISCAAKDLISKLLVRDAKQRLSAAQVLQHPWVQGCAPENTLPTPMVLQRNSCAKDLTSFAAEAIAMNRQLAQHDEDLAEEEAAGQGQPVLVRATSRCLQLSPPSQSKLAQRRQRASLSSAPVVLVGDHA
Chain of MNK1 (Q9BUB5 whole entry): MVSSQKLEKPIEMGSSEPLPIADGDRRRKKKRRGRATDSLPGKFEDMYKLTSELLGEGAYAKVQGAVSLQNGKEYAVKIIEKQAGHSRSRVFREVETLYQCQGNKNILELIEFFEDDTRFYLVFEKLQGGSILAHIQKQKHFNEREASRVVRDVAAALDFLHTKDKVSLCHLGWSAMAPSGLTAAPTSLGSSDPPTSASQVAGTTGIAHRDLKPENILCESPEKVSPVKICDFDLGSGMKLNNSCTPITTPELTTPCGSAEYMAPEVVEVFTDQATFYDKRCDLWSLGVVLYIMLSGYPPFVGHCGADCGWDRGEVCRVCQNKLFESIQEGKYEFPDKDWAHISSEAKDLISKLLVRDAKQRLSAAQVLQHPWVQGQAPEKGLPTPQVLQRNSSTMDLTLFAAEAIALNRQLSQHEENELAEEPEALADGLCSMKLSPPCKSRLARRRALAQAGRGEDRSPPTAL

In the case of `O=C(c1ccc(-c2cn3c(-c4ccc(F)cc4)csc3n2)cc1)N1CCOCC1` [Compound 44, (4-(3-(4-fluorophenyl)imidazo[2,1-b]thiazol-6-yl)phenyl)(morpholino)methanone], the inhibition at 1 µM in assay [1] and in assay [2] was 25 to 50% in each case.

For the compound `CN1CCN(C(=O)c2ccc(-c3nn4c(-c5ccc(F)cc5)cnc4s3)cc2)CC1` [Compound 18, (4-(5-(4-fluorophenyl)imidazo[2,1-b][1,3,4]thiadiazol-2-yl)phenyl)(4-methylpiperazin-1-yl)methanone], the pIC50 in assay [1] is more than 7.30; in assay [2], 6.70 to 7.30. The inhibition at 1 µM in assay [1] and in assay [2] was more than 75% each time.

Take `N#Cc1ccc(-c2cnc3sc(-c4ccc(C(=O)NCCCCCO)cc4)nn23)cc1` [Compound 42, 4-(5-(4-cyanophenyl)imidazo[2,1-b][1,3,4]thiadiazol-2-yl)-N-(5-hydroxypentyl)benzamide]: in assay [1], the negative logarithm of the IC50 (pIC50) is more than 7.30 and the inhibition at 1 µM is more than 75%. Moreover, in assay [2], the pIC50 was more than 7.30 and the inhibition at 1 µM was more than 75%.

Turning to `N#Cc1ccc(-c2cnc3sc(-c4ccc(C(=O)N5CCCC5)cc4)nn23)cc1` [Compound 30, 4-(2-(4-(pyrrolidine-1-carbonyl)phenyl)imidazo[2,1-b][1,3,4]thiadiazol-5-yl)benzonitrile], the pIC50 in assay [1] and in assay [2] was more than 7.30 each time. Also, the inhibition at 1 µM in assay [1] and in assay [2] was more than 75% in each case.

On to `CN(C)C1CCN(C(=O)c2ccc(-c3cn4c(-c5ccc(Cl)cc5)csc4n3)cc2)CC1` [Compound 55, (4-(3-(4-chlorophenyl)imidazo[2,1-b]thiazol-6-yl)phenyl)(4-(dimethylamino)piperidin-1-yl)methanone], for which the inhibition at 1 µM in assay [1] and in assay [2] was 25 to 50% each time.

As for `CN1CCN(C(=O)c2ccc(-c3nn4c(-c5ccc(Cl)cc5)cnc4s3)cc2)CC1` [Compound 22, (4-(5-(4-chlorophenyl)imidazo[2,1-b][1,3,4]thiadiazol-2-yl)phenyl)(4-methylpiperazin-1-yl)methanone], in assay [1], the negative logarithm of the IC50 (pIC50) was more than 7.30 and the inhibition at 1 µM was more than 75%. Moreover, in assay [2], the pIC50 was more than 7.30 and the inhibition at 1 µM was more than 75%.

Turning to `N#Cc1ccc(-c2cnc3sc(-c4ccc(C(=O)OCCN5CCCC5)cc4)nn23)cc1` [Compound 31, 2-(pyrrolidin-1-yl)ethyl 4-(5-(4-cyanophenyl)imidazo[2,1-b][1,3,4]thiadiazol-2-yl)benzoate], the inhibition at 1 µM in assay [1] and in assay [2] was 25 to 50% each time.

For the compound `N#Cc1ccc(-c2cnc3sc(-c4ccc(C(=O)NCCCO)cc4)nn23)cc1` [Compound 39, 4-(5-(4-cyanophenyl)imidazo[2,1-b][1,3,4]thiadiazol-2-yl)-N-(3-hydroxypropyl)benzamide], the negative logarithm of the IC50 (pIC50) in assay [1] and in assay [2] was more than 7.30 in each case. Also, the inhibition at 1 µM in assay [1] and in assay [2] was more than 75% in each case.

As to `O=C(c1ccc(-c2cn3c(-c4ccc(Cl)cc4)csc3n2)cc1)N1CCOCC1` [Compound 47, (4-(3-(4-chlorophenyl)imidazo[2,1-b]thiazol-6-yl)phenyl)(morpholino)methanone], the inhibition at 1 µM in assay [1] and in assay [2] was 25 to 50% throughout.

Consider `CN1CCN(C(=O)c2ccc(-c3cn4c(-c5ccc(F)cc5)csc4n3)cc2)CC1` [Compound 49, (4-(3-(4-fluorophenyl)imidazo[2,1-b]thiazol-6-yl)phenyl)(4-methylpiperazin-1-yl)methanone], for which the inhibition at 1 µM in assay [1] and in assay [2] was 25 to 50% each time.

With `O=C(c1ccc(-c2nn3c(-c4ccc(CO)cc4)cnc3s2)cc1)N1CCOCC1` [Compound 8], in assay [1], the pIC50 was 6.10 to 6.70 and the inhibition at 1 µM was more than 75%. In addition, in assay [2], the pIC50 was 6.10 to 6.70 and the inhibition at 1 µM was more than 75%.

For the compound `O=C(c1ccc(-c2nn3c(-c4ccc(C(F)(F)F)c(F)c4)cnc3s2)cc1)N1CCOCC1` [Compound 9, (4-(5-(3-fluoro-4-(trifluoromethyl)phenyl)imidazo[2,1-b][1,3,4]thiadiazol-2-yl)phenyl)(morpholino)methanone], the inhibition at 1 µM in assay [1] and in assay [2] was more than 75% throughout.

In the case of `CN(C)C1CCN(C(=O)c2ccc(-c3nn4c(-c5ccc(F)cc5)cnc4s3)cc2)CC1` [Compound 13, (4-(dimethylamino)piperidin-1-yl)(4-(5-(4-fluorophenyl)imidazo[2,1-b][1,3,4]thiadiazol-2-yl)phenyl)methanone], in assay [1], the pIC50 is more than 7.30 and the inhibition at 1 µM was more than 75%. Moreover, in assay [2], the negative-log IC50 (pIC50) is more than 7.30 and the inhibition at 1 µM is more than 75%.

In the case of `CN1CCN(C(=O)c2ccc(-c3nn4c(-c5ccncc5)cnc4s3)cc2)CC1` [Compound 20, (4-methylpiperazin-1-yl)(4-(5-(pyridin-4-yl)imidazo[2,1-b][1,3,4]thiadiazol-2-yl)phenyl)methanone], in assay [1], the pIC50 is 6.70 to 7.30 and the inhibition at 1 µM is more than 75%. Further, in assay [2], the negative-log IC50 (pIC50) is 6.10 to 6.70 and the inhibition at 1 µM was more than 75%.

Consider `COc1ccc(-c2cnc3sc(-c4ccc(C(=O)N5CCC(N(C)C)CC5)cc4)nn23)cc1` [Compound 15, (4-(dimethylamino)piperidin-1-yl)(4-(5-(4-methoxyphenyl)imidazo[2,1-b][1,3,4]thiadiazol-2-yl)phenyl)methanone], for which, in assay [1], the pIC50 was more than 7.30 and the inhibition at 1 µM was more than 75%. In assay [2], the pIC50 is more than 7.30 and the inhibition at 1 µM was more than 75%.

With `O=C(c1ccc(-c2cn3c(-c4ccc(C(F)(F)F)cc4)csc3n2)cc1)N1CCOCC1` [Compound 46, morpholino(4-(3-(4-(trifluoromethyl)phenyl)imidazo[2,1-b]thiazol-6-yl)phenyl)methanone], the inhibition at 1 µM in assay [1] and in assay [2] was 25 to 50% in each case.

For the compound `CN1CCN(C(=O)c2ccc(-c3nn4c(-c5ccc(F)cc5F)cnc4s3)cc2)CC1` [Compound 26, (4-(5-(2,4-difluorophenyl)imidazo[2,1-b][1,3,4]thiadiazol-2-yl)phenyl)(4-methylpiperazin-1-yl)methanone], the inhibition at 1 µM in assay [1] and in assay [2] was 25 to 50% each time.

Turning to `O=C(c1ccc(-c2nn3c(-c4ccc(O)c(F)c4)cnc3s2)cc1)N1CCOCC1` [Compound 10, (4-(5-(3-fluoro-4-hydroxyphenyl)imidazo[2,1-b][1,3,4]thiadiazol-2-yl)phenyl)(morpholino)methanone], the negative logarithm of the IC50 (pIC50) in assay [1] is more than 7.30; in assay [2], 6.70 to 7.30. Further, the inhibition at 1 µM in assay [1] and in assay [2] was more than 75% each time.

For the compound `N#Cc1ccc(-c2cnc3sc(-c4ccc(C(=O)OCCCCCO)cc4)nn23)cc1` [Compound 34, 5-hydroxypentyl 4-(5-(4-cyanophenyl)imidazo[2,1-b][1,3, 4]thiadiazol-2-yl)benzoate], the inhibition at 1 µM in assay [1] and in assay [2] was 25 to 50% in each case.

`O=C(c1ccc(-c2cn3c(-c4ccc(F)cc4)csc3n2)cc1)N1CCC(N2CCOCC2)CC1` [Compound 52, 6-(4-(4-morpholinepiperidinebasecarbonyl)phenyl)-3-(4-fluorinatedphenyl) imidazole [2,1-b]thiazole compounds]: the inhibition at 1 µM in assay [1] and in assay [2] was 25 to 50% in each case.

As to `CN1CCN(C(=O)c2ccc(-c3nn4c(-c5ccc(F)nc5)cnc4s3)cc2)CC1` [Compound 28, (4-(5-(6-fluoropyridin-3-yl)imidazo[2,1-b][1,3,4]thiadiazol-2-yl)phenyl)(4-methylpiperazin-1-yl)methanone], the pIC50 was 6.10 to 6.70 in assay [1] and 5.82 to 6.10 in assay [2]. Besides, the results for the inhibition at 1 µM in assay [1] and in assay [2] were more than 75% and 50 to 75%, respectively.

With `CN(C)C1CCN(C(=O)c2ccc(-c3cn4c(-c5ccc(F)cc5)csc4n3)cc2)CC1` [Compound 53, (4-(dimethylamino)piperidin-1-yl)(4-(3-(4-fluorophenyl)imidazo[2,1-b]thiazol-6-yl)phenyl)methanone], the inhibition at 1 µM in assay [1] and in assay [2] was 25 to 50% each time.

`CN(C)C1CCN(C(=O)c2ccc(-c3nn4c(-c5ccc(O)cc5)cnc4s3)cc2)CC1` [Compound 14, (4-(dimethylamino)piperidin-1-yl)(4-(5-(4-hydroxyphenyl)imidazo[2,1-b][1,3,4]thiadiazol-2-yl)phenyl)methanone]: in assay [1], the pIC50 is more than 7.30 and the inhibition at 1 µM is more than 75%. In addition, in assay [2], the negative-log IC50 (pIC50) was more than 7.30 and the inhibition at 1 µM was more than 75%.

Consider `CN1CCN(C(=O)c2ccc(-c3nn4c(-c5ccc(C#N)nc5)cnc4s3)cc2)CC1` [Compound 27, 5-(2-(4-(4-methylpiperazine-1-carbonyl)phenyl)imidazo[2,1-b][1,3,4]thiadiazol-5-yl)picolinonitrile], for which the inhibition at 1 µM in assay [1] and in assay [2] was 25 to 50% in each case.

In general, pIC50 refers to the IC50 on a negative log10 scale, so that one unit is a factor of ten. Lower therefore signals a high IC50.
